Key:
[1] = tested on: Arabidopsis cell suspension MM2d; assay: Aphidicolin block/release of MM2d: mitotic index and labelling index; format: cell-based, Arabidopsis thaliana
Protocol: This experiment was carried out as described for Example 1, except that cell line MM2d was used, and the culture conditions throughout the experiment were as described for MM2d in Example 1.
Synchronisation was performed as described in Example 2A, with the exception that before adding aphidicolin, 20 ml of the weekly subcultured cell suspension was transferred into 100 ml fresh MSS-medium in each of 2 separate flasks and cultivated under conditions as described in Example 1 for MM2d. […] Samples were taken at the same time frame for flow cytometry to follow cell cycle transition.
Samples were analysed by flow cytometry to determine the percentage of cells being in G1-, S- and G2M phase. The mitotic index (MI) and labelling index (LI) were independently determined (as described in Example 2A). Results are shown below in table II and in FIG. 1.
Table II. Aphidicolin block/release of Arabidopsis cell suspension MM2d. Data are shown from analysis of samples obtained in the experiment described in Example 2B.

CDK-b1 = assay: Northern expression analysis after aphidicolin synchronisation of MM1 (maximum signal = 100%); format: cell-based, Arabidopsis thaliana
Protocol: was analysed following the expression level of known cell cycle regulated genes. Synchronisation was performed as described in Example 2A, with the exception that two 7-day old cultures of the weekly sub-cultured cell suspension (210 ml each) were combined. 40 ml of combined culture was transferred into 200 ml of fresh MSS-medium in each of 10 separate flasks. After incubation for 24 hrs under conditions as described in Example 1, in the presence of 4.16 μg/ml aphidicolin, cells from 5 pooled flasks were washed through a nylon net (mesh size 47 μm) and washed with 2 litre MSS medium and shaken vigorously to remove the aphidicolin. Cells were transferred into a 50 ml plastic tube, washed again with MSS medium and centrifuged at 2500 rpm for 1 min (1075 rcf). Cells were resuspended and combined with the cells from the other 5 flasks similarly washed in a total volume of 300 ml fresh MSS-medium. 30 ml of this cell suspension was then added to 200 ml fresh MSS-medium in each of 10 separate flasks.
1) 25 ml for Northern blot (transferred into 50 ml plastic tube, centrifuged at 2500 rpm for 1 min, the supernatant discarded, and the cell pellet shock-frozen in liquid nitrogen before storing in −80° C. freezer)
Samples were collected at the time point indicated (time of removal of aphidicolin equals time point 0 hrs) and were analysed for expression of the following genes by Northern blot:
CDK-b1 (also called Cdc2b/CDK2b: Accession no. ATCDC2BP)
For each probe the maximum hybridisation signal obtained was defined as 100%.

[2] = 0 hrs after aphidicolin removal
[3] = 2 hrs after aphidicolin removal
[4] = 4 hrs after aphidicolin removal
[5] = 6 hrs after aphidicolin removal
[6] = 8 hrs after aphidicolin removal
[7] = 10 hrs after aphidicolin removal
[8] = 12 hrs after aphidicolin removal
[9] = 14 hrs after aphidicolin removal
[10] = 16 hrs after aphidicolin removal
[11] = 18 hrs after aphidicolin removal
[12] = 20 hrs after aphidicolin removal
[13] = 22 hrs after aphidicolin removal
[14] = 24 hrs after aphidicolin removal
[15] = 26 hrs after aphidicolin removal
[16] = 28 hrs after aphidicolin removal
[17] = 30 hrs after aphidicolin removal

C[C@@]1(CO)[C@H](O)CC[C@@]2(C)[C@H]1CC[C@H]1C[C@@H]3C[C@@]12CC[C@]3(O)CO [aphidicolin]
Labelling Index (%) ([1]; 1 h after aphidicolin removal): 19.41%
Mitotic index (%) ([1]; 1 h after aphidicolin removal): 0%
Labelling Index (%) ([1]; 2 h after aphidicolin removal): 35.47%
Mitotic index (%) ([1]; 2 h after aphidicolin removal): 0.2%
Labelling Index (%) ([1]; 3 h after aphidicolin removal): 69.46%
Mitotic index (%) ([1]; 3 h after aphidicolin removal): 0.4%
Labelling Index (%) ([1]; 4 h after aphidicolin removal): 66%
Mitotic index (%) ([1]; 4 h after aphidicolin removal): 0.6%
Labelling Index (%) ([1]; 5 h after aphidicolin removal): 39.22%
Mitotic index (%) ([1]; 5 h after aphidicolin removal): 1.21%
Labelling Index (%) ([1]; 6 h after aphidicolin removal): 16.05%
Mitotic index (%) ([1]; 6 h after aphidicolin removal): 0.92%
Labelling Index (%) ([1]; 7 h after aphidicolin removal): 13.27%
Mitotic index (%) ([1]; 7 h after aphidicolin removal): 0.71%
Labelling Index (%) ([1]; 8 h after aphidicolin removal): 9.6%
Mitotic index (%) ([1]; 8 h after aphidicolin removal): 1.87%
Labelling Index (%) ([1]; 9 h after aphidicolin removal): 8.23%
Mitotic index (%) ([1]; 9 h after aphidicolin removal): 2.41%
Labelling Index (%) ([1]; 10 h after aphidicolin removal): 9.23%
Mitotic index (%) ([1]; 10 h after aphidicolin removal): 6.09%
Labelling Index (%) ([1]; 11 h after aphidicolin removal): 4.6%
Mitotic index (%) ([1]; 11 h after aphidicolin removal): 6.7%
Labelling Index (%) ([1]; 12 h after aphidicolin removal): 1.46%
Mitotic index (%) ([1]; 12 h after aphidicolin removal): 10.72%
Labelling Index (%) ([1]; 13 h after aphidicolin removal): 2.78%
Mitotic index (%) ([1]; 13 h after aphidicolin removal): 11.06%
Labelling Index (%) ([1]; 14 h after aphidicolin removal): 3.61%
Mitotic index (%) ([1]; 14 h after aphidicolin removal): 10.99%
Labelling Index (%) ([1]; 15 h after aphidicolin removal): 2.73%
Mitotic index (%) ([1]; 15 h after aphidicolin removal): 6.74%
Labelling Index (%) ([1]; 16 h after aphidicolin removal): 2.28%
Mitotic index (%) ([1]; 16 h after aphidicolin removal): 5.79%
Labelling Index (%) ([1]; 17 h after aphidicolin removal): 1.96%
Mitotic index (%) ([1]; 17 h after aphidicolin removal): 4.49%
Labelling Index (%) ([1]; 18 h after aphidicolin removal): 3.3%
Mitotic index (%) ([1]; 18 h after aphidicolin removal): 4.01%
Labelling Index (%) ([1]; 19 h after aphidicolin removal): 7.62%
Mitotic index (%) ([1]; 19 h after aphidicolin removal): 2.38%
CDK-b1 % (CDK-b1; [2]): 34.26%
CDK-b1 Band intensity (CDK-b1; [2]): 500
CDK-b1 % (CDK-b1; [3]): 57.86%
CDK-b1 Band intensity (CDK-b1; [3]): 844
CDK-b1 % (CDK-b1; [4]): 69.78%
CDK-b1 Band intensity (CDK-b1; [4]): 1018
CDK-b1 % (CDK-b1; [5]): 74.34%
CDK-b1 Band intensity (CDK-b1; [5]): 1085
CDK-b1 % (CDK-b1; [6]): 79.46%
CDK-b1 Band intensity (CDK-b1; [6]): 1160
CDK-b1 % (CDK-b1; [7]): 96.41%
CDK-b1 Band intensity (CDK-b1; [7]): 1407
CDK-b1 % (CDK-b1; [8]): 99.31%
CDK-b1 Band intensity (CDK-b1; [8]): 1450
CDK-b1 % (CDK-b1; [9]): 100.0%
CDK-b1 Band intensity (CDK-b1; [9]): 1459
CDK-b1 % (CDK-b1; [10]): 73.89%
CDK-b1 Band intensity (CDK-b1; [10]): 1078
CDK-b1 % (CDK-b1; [11]): 51.49%
CDK-b1 Band intensity (CDK-b1; [11]): 751
CDK-b1 % (CDK-b1; [12]): 58.87%
CDK-b1 Band intensity (CDK-b1; [12]): 859
CDK-b1 % (CDK-b1; [13]): 42.07%
CDK-b1 Band intensity (CDK-b1; [13]): 614
CDK-b1 % (CDK-b1; [14]): 30.65%
CDK-b1 Band intensity (CDK-b1; [14]): 447
CDK-b1 % (CDK-b1; [15]): 49.74%
CDK-b1 Band intensity (CDK-b1; [15]): 726
CDK-b1 % (CDK-b1; [16]): 50.87%
CDK-b1 Band intensity (CDK-b1; [16]): 742
CDK-b1 % (CDK-b1; [17]): 57.47%
CDK-b1 Band intensity (CDK-b1; [17]): 839
